Entries after “also recorded” stand apart in the source; their conditions may differ.
How the values were obtained:
p44/42 Erk1/2 = test: IL-2-mediated p44/42 Erk1/2 phosphorylation in PHA-activated T cells; assay type: cell-based; settings: human T-cells, 2 hours drug
Description: Solubilization of membrane proteins, immunoprecipitation, and Western blot analysis. Frozen cell pellets were thawed on ice and solubilized in 1% TX-100 lysis buffer (10^8 cells/ml) and clarified by centrifugation, as previously described.^16 For human T-cells, supernates were incubated rotating end over end for 2 hours at 4° C. with either 5 μl/ml polyclonal rabbit antisera raised against peptides derived from the unique COOH-termini of Jak3 (amino acid [a.a.] 1104-1124), carboxyl termini of human Stat5a (a.a. 775-794) or Stat5b (a.a. 777-787).^26 Ab and immunoprecipitated proteins were captured by incubation for 30 minutes with Protein A-Sepharose beads (Pharmacia, Piscataway, N.J.), sedimented for purification, and eluted by boiling in 2×SDS-sample buffer (20% Glycerol, 10% 2-Mercaptoethanol, 4.6% SDS, 0.004% Bromophenol blue in 0.125 M Tris pH 6.8) for 4 minutes. For phosphoMapk assays, approximately 25 μg of total cell lysate was dissociated in SDS-sample buffer and separated on 10% (all others on 7.5%) SDS-PAGE under reducing conditions. […]

Stat5a/b = Stat5a/b DNA binding, EMSA in PHA activated T-cells; assay type: cell-based, human; settings: increasing concentrations
Description: EMSA. Electrophoretic mobility shift assay (EMSA). Drug or vehicle control (DMSO) treated cells were pelleted by centrifugation (20,000×g for 1 min at 4° C.) and subsequently washed in five volumes of 10 mM HEPES, pH 7.9, 10 mM KCl, 1.5 mM MgCl2, 0.5 mM DTT, […], 5 μg/ml aprotinin, 1 μg/ml pepstatin A and 2 μg/ml leupeptin, centrifuged, then lysed in the same buffer supplemented with 1% NP-40 and incubated for 20 min on ice. The nuclei-containing pellet was resuspended in equal volumes of low salt buffer (10 mM HEPES, 25% glycerol, 1.5 mM MgCl2, 20 mM KCl, 0.5 mM DTT, 0.2 mM EDTA and protease inhibitors) and high salt buffer (low salt buffer containing 800 mM KCl). This fraction was then isolated by centrifugation at 4° C. for 10 min and supernatants saved as nuclear protein extract and stored at −70° C. Gel mobility shift assays were performed to detect Stat5a/b DNA binding activity using a Stat5 DNA binding sequence corresponding to the promoter of the β-casein gene (5′-[…]-3′) or an NF-kB binding element (5′-[…]-3′). Both probes were end-labeled with [^32P]dATP. […]
In FIG. 9A, it can be seen that NC1153 inhibits Jak3 driven transcription factor-Stat5a/b in PHA activated T-cells treated with increasing concentrations of NC1153 in a dose dependent manner as measured via EMSA analysis (upper panel). […]

[1] = test system: LEW or third-party heart allografts; test: Adoptive transfer of T cells from tolerant recipients into irradiated ACI heart allograft recipients; assay type: in vivo, rat
Description: ACI rat recipients of LEW kidney allografts were treated for 14 days with NC1153 delivered by daily oral gavage. […] ACI rat recipients of LEW kidney allografts were treated for 7 days and thereafter 3×/week up to 90 days with 160 mg/kg NC1153 delivered by daily oral gavage. […] The mechanism of tolerance was examined when irradiated (400 rads) ACI recipients of LEW heart allografts were adoptively transferred with 30×10^6 purified T cells from tolerant recipients.

Fyn = Fyn (Homo sapiens, UniProt P06241); test: Tyrosine phosphorylation of activated Fyn in YT cells; assay type: cell-based; set-up: Cellular extracts were immunoprecipitated with anti-Fyn or anti-Lck antibodies; endogenous in cells; host or cells: YT cells; settings: 1-100 μM, 2 hours
Fyn, sequence (P06241 whole entry): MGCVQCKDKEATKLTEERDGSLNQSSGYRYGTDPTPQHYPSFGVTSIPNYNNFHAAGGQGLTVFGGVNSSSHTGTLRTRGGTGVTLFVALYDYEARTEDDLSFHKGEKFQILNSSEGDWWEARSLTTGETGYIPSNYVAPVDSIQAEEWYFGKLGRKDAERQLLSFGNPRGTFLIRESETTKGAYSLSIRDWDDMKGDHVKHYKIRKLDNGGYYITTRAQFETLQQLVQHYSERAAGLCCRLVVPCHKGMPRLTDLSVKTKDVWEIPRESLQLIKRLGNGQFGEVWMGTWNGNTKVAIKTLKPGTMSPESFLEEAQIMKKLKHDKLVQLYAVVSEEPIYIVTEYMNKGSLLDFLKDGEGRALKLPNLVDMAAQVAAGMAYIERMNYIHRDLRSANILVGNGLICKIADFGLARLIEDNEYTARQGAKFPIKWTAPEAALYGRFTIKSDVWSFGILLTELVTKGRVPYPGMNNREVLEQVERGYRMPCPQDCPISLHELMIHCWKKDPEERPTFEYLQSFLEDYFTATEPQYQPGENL

CN(C)CC1CCCCCCCCCC(CN(C)C)C1=O (mixture of isomers) [649641P (NC1153)]
IL2-mediated Erk1/2 phosphorylation / activation (p44/42 Erk1/2): blocks IL2-mediated Erk1/2 activation; also recorded: inhibited tyrosine phosphorylation
Stat5a/b DNA binding (EMSA) (Stat5a/b): inhibits; also recorded: greatly impaired
Stat5a/b DNA binding (EMSA) (Stat5a/b; listed as NC1153): inhibits
rejection of LEW heart allografts after transfer of tolerant T cells ([1]; irradiated (400 rads) ACI recipients, 30×10^6 T cells from NC1153-tolerant recipients, irradiated controls 15±1.0): 40.0±15.0 days
rejection of third-party heart allografts after transfer of tolerant T cells ([1]; irradiated ACI recipients, T cells from NC1153-tolerant recipients, n=2): 12±1.0 days
activity (tyrosine phosphorylation) of Fyn (Fyn): no effect; also recorded: does not block the activity; also recorded: did not inhibit

— patent publication US7365096B2, “Methods for selectively inhibiting Janus tyrosine kinase 3 (Jak3)” (Board of Regents, The University of Texas System, priority 2002, dated 2008)
